Measured values as given in the supplement of paper PMC10307832.

What was measured:
Experiment in all cases: relative viability (nuclei count vs DMSO), 5 days (fraction); higher = more cells survive
Imatinib + Crizotinib = compound: Cc1ccc(NC(=O)c2ccc(CN3CCN(C)CC3)cc2)cc1Nc1nccc(-c2cccnc2)n1 [Imatinib] + C[C@@H](Oc1cc(-c2cnn(C3CCNCC3)c2)cnc1N)c1c(Cl)ccc(F)c1Cl [Crizotinib] (partner 1 µM)
How it was run: (§1)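 Lung cancer cell lines were pin-tool dosed in 1536-well plates on the day after seeding, with either a lone drug or a fixed anchor-drug dose plus five library-drug doses (not always all listed) in √10 steps. Nuclei were counted on 4× images after 5 days. Relative viability is the ratio of treated-well to vehicle-well nuclei counts, with each value a median of duplicate plates.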

Imatinib + Pictilisib = compound: Cc1ccc(NC(=O)c2ccc(CN3CCN(C)CC3)cc2)cc1Nc1nccc(-c2cccnc2)n1 [Imatinib] + CS(=O)(=O)N1CCN(Cc2cc3nc(-c4cccc5[nH]ncc45)nc(N4CCOCC4)c3s2)CC1 [Pictilisib] (partner 1 µM)
How it was run: as §1

Imatinib + Alpelisib = compound: Cc1ccc(NC(=O)c2ccc(CN3CCN(C)CC3)cc2)cc1Nc1nccc(-c2cccnc2)n1 [Imatinib] + Cc1nc(NC(=O)N2CCC[C@H]2C(N)=O)sc1-c1ccnc(C(C)(C)C(F)(F)F)c1 [Alpelisib] (partner 2 µM)
How it was run: as §1

Imatinib + OSI-027 = compound: Cc1ccc(NC(=O)c2ccc(CN3CCN(C)CC3)cc2)cc1Nc1nccc(-c2cccnc2)n1 [Imatinib] + COc1cccc2cc(-c3nc([C@H]4CC[C@H](C(=O)O)CC4)n4ncnc(N)c34)[nH]c12 [OSI-027] (partner 0.5 µM)
How it was run: as §1

Cell Line | relative viability (Imatinib + Crizotinib; first compound 0.2 µM) | relative viability (Imatinib + Crizotinib; first compound 0.6325 µM) | relative viability (Imatinib + Crizotinib; first compound 2 µM) | relative viability (Imatinib + Pictilisib; first compound 0.02 µM) | relative viability (Imatinib + Pictilisib; first compound 0.2 µM) | relative viability (Imatinib + Pictilisib; first compound 0.6325 µM) | relative viability (Imatinib + Pictilisib; first compound 2 µM) | relative viability (Imatinib + Alpelisib; first compound 0.02 µM) | relative viability (Imatinib + Alpelisib; first compound 0.2 µM) | relative viability (Imatinib + Alpelisib; first compound 0.6325 µM) | relative viability (Imatinib + Alpelisib; first compound 2 µM) | relative viability (Imatinib + OSI-027; first compound 0.02 µM) | relative viability (Imatinib + OSI-027; first compound 0.06325 µM) | relative viability (Imatinib + OSI-027; first compound 0.2 µM) | relative viability (Imatinib + OSI-027; first compound 0.6325 µM) | relative viability (Imatinib + Crizotinib; first compound 0.02 µM) | relative viability (Imatinib + OSI-027; first compound 2 µM) | relative viability (Imatinib + Crizotinib; first compound 0.06325 µM) | relative viability (Imatinib + Pictilisib; first compound 0.06325 µM) | relative viability (Imatinib + Alpelisib; first compound 0.06325 µM)
201T | 1.09 | 0.993 | 1.02 | 0.711 | 0.664 | 0.729 | 0.679 | 1.03 | 1.07 | 1.02 | 0.993 | 0.865 | 0.798 | 0.762 | 0.761 | – | – | – | – | –
A-427 | 0.993 | 0.755 | – | 0.749 | 0.692 | 0.739 | 0.663 | 1.11 | – | 1.1 | 1.06 | 0.503 | – | 0.5 | 0.447 | 0.981 | 0.47 | – | – | –
ABC-1 | 1.43 | 1.15 | 1.07 | 0.685 | 0.669 | 0.914 | 0.679 | 1.1 | 1.35 | 1.13 | 0.888 | 0.516 | – | 0.504 | 0.521 | 1.34 | 0.564 | – | – | –
BEN | 1 | 0.762 | 0.93 | 0.609 | 0.619 | 0.491 | 0.673 | 1.1 | 0.93 | 1.05 | 1.03 | 0.285 | – | 0.262 | 0.287 | 1.04 | 0.302 | 0.847 | 0.383 | 0.785
CAL-12T | 1.17 | 0.624 | 0.776 | 0.507 | 0.486 | 0.667 | 0.524 | 1.47 | 1.42 | 1.17 | 1.14 | 0.714 | – | 0.605 | 0.702 | 0.715 | 0.471 | 0.696 | 0.433 | 1.62
COR-L23 | 0.809 | 0.685 | 0.632 | 1.02 | 1.1 | 0.786 | – | 0.794 | 0.969 | 0.806 | 0.902 | 0.869 | 0.831 | 0.853 | 0.824 | 0.807 | 0.64 | 0.73 | 0.715 | 1.02
COR-L 105 | 0.791 | 0.827 | 0.726 | 0.37 | 0.508 | 0.406 | 0.385 | 1.29 | 1.18 | 0.882 | 1.01 | 0.771 | 0.739 | 0.65 | 0.653 | 0.793 | 0.685 | – | 0.372 | 1.35
ChaGo-K-1 | 1.31 | 0.976 | 1.05 | 0.88 | 0.589 | – | – | – | – | – | – | 0.444 | 0.511 | 0.538 | 0.56 | 1.12 | 0.491 | 1.35 | 0.497 | –
EBC-1 | 0.19 | 0.196 | 0.208 | 0.425 | 0.387 | 0.304 | 0.334 | 0.763 | 0.893 | 0.823 | 0.634 | – | – | – | – | 0.185 | – | 0.204 | 0.405 | –
EKVX | 1.08 | 0.886 | – | 0.419 | 0.475 | 0.528 | 0.508 | 0.967 | 0.89 | 0.835 | 1.01 | – | 0.388 | 0.65 | 0.551 | 0.937 | 0.868 | 0.861 | 0.343 | 0.883
IA-LM | 0.999 | 0.781 | 0.735 | 0.431 | 0.317 | 0.586 | 0.373 | 0.838 | 0.928 | 0.967 | 0.702 | – | – | – | – | 0.991 | – | 0.744 | 0.497 | 1.1
NCI-H1299 | – | – | – | 0.868 | 0.833 | 0.954 | 0.776 | 1.16 | 1.14 | 1.12 | 0.983 | – | – | – | – | – | – | – | 1.07 | 1.1
NCI-H1395 | – | – | – | 0.622 | 0.6 | 0.651 | 0.605 | 1.03 | 1.08 | 1 | 0.999 | 0.63 | 0.443 | 0.705 | 0.581 | – | 0.606 | – | – | –
NCI-H1648 | – | – | – | – | – | – | – | – | – | – | – | 0.253 | 0.266 | 0.243 | – | – | 0.237 | – | – | –
NCI-H1650 | 1.2 | 0.904 | 1.11 | 0.638 | 0.589 | 0.574 | 0.661 | – | – | – | – | 0.629 | 0.481 | 0.39 | 0.544 | 1.04 | 0.512 | 1.06 | 0.338 | –
NCI-H1666 | 0.991 | 1.14 | 0.966 | 0.327 | 0.381 | 0.48 | 0.393 | 1.04 | 1.09 | 1.34 | 0.887 | – | – | – | – | 1.02 | – | 1.09 | 0.406 | 1.05
NCI-H1703 | 0.437 | 0.304 | 0.186 | – | 0.219 | 0.256 | 0.235 | 0.355 | 0.206 | 0.242 | 0.143 | – | – | – | – | 0.773 | – | 0.88 | 0.268 | 0.259
NCI-H1793 | – | – | – | 0.272 | 0.332 | 0.412 | 0.413 | 0.721 | 0.801 | 0.73 | 0.674 | 0.298 | – | 0.263 | 0.249 | – | 0.204 | – | – | –
NCI-H2126 | 1.05 | 1 | 0.984 | 0.507 | 0.484 | 0.452 | 0.475 | – | – | – | – | 0.851 | 0.68 | 0.673 | 0.604 | 1.04 | 0.678 | – | – | –
NCI-H2342 | – | – | – | – | – | – | – | – | – | – | – | 0.667 | 0.539 | 0.636 | 0.596 | – | 0.665 | – | – | –
